According to ChEMBL document CHEMBL5727241, “Benzazepine dicarboxamide compounds with tertiary amide function” (2019):

How the values were obtained:
Toll-like receptor 7 = biological target: T1, Toll-like receptor 7 (Homo sapiens, UniProt Q9NYK1); test: (§1) Pharmacological Assay: For TLR8 and TLR7 activity testing, HEK-Blue human TLR8 or TLR7 cells (Invivogen, San Diego, Calif., USA) are used, respectively. These cells are designed for studying the stimulation of human TLR8 or TLR7 by monitoring the activation of NF-κB. A SEAP (secreted embryonic alkaline phosphatase) reporter gene is placed under the control of the IFN-b minimal promoter fused to five NF-κB and AP-1-binding sites. Therefore the reporter expression is regulated by the NF-κB promoter upon stimulation of human TLR8 or TLR7 for 20 hours. The cell culture supernatant SEAP reporter activity was determined using Quanti Blue kit (Invivogen, San Diego, Ca, USA) at a wavelength of 640 nm, a detection medium that turns purple/blue in the presence of alkaline phosphatase.
T1 sequence (Q9NYK1 whole entry): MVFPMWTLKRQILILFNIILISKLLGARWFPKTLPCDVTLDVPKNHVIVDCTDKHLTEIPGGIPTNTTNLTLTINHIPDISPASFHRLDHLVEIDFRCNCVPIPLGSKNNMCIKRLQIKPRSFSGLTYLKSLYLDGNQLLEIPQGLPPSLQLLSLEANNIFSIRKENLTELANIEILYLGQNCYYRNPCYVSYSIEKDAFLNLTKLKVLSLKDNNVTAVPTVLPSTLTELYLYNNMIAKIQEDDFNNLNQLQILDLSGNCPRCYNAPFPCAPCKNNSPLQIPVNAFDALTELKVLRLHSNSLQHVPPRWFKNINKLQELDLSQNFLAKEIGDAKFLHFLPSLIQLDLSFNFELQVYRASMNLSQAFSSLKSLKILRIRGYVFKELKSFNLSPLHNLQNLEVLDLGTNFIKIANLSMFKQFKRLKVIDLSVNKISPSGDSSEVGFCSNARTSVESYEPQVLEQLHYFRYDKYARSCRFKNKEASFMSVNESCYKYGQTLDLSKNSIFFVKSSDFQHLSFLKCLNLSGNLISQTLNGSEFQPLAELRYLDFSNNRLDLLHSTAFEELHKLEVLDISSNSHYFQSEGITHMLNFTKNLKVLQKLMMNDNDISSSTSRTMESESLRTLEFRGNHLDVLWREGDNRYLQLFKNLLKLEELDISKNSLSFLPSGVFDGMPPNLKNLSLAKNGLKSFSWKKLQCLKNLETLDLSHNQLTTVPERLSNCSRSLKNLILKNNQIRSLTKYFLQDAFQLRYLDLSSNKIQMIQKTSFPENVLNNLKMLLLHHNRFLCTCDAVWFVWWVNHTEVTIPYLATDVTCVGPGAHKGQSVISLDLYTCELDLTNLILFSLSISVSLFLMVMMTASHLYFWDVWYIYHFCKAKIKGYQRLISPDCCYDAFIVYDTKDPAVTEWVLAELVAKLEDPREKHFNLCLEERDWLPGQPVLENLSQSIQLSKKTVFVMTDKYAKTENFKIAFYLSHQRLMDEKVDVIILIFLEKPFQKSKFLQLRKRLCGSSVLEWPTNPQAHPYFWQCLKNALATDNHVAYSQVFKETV

Toll-like receptor 8 = biological target: T2, Toll-like receptor 8 (Homo sapiens, UniProt Q9NR97); test: as §1
T2 sequence (Q9NR97 whole entry): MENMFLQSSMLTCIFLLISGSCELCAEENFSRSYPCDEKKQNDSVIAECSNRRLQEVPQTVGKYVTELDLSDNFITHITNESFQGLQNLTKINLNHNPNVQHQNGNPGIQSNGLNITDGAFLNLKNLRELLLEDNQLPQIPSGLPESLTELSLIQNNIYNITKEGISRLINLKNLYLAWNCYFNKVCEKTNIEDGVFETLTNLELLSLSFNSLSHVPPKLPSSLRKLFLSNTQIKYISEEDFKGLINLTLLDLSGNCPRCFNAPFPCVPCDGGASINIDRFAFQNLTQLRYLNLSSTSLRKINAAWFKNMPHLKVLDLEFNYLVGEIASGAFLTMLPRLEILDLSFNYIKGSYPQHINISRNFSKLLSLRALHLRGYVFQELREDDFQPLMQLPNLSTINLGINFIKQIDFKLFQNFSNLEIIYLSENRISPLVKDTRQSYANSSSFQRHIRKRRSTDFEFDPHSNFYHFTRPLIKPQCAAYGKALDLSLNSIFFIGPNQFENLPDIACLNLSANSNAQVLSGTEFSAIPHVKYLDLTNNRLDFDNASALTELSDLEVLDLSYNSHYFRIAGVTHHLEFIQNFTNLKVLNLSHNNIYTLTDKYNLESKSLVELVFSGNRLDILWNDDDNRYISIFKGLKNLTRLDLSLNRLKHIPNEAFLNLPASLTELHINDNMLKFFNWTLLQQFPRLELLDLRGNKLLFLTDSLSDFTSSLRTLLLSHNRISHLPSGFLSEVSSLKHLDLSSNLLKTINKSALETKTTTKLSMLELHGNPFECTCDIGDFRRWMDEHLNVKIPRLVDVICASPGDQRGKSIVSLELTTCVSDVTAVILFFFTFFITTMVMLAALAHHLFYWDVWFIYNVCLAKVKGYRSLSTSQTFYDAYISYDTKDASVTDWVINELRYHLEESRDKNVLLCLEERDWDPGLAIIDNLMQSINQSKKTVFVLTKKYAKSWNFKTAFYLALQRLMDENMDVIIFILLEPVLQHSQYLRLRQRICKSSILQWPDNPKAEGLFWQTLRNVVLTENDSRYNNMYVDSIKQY

- EC50 (Toll-like receptor 7): 15 µM
- EC50 (Toll-like receptor 8): 0.004 µM
SMILES: CCCN(CCC)C(=O)C1=Cc2ccc(C(=O)N3CC(OCc4ccccc4)C3)cc2N=C(N)C1
